Patent publication US20250114386A1, “COMBINATION OF A GLYCOSYLATION INHIBITOR WITH ONE CAR CELL THERAPY FOR TREATING CANCER” (OSPEDALE SAN RAFFAELE S.R.L., priority 2018, published 2025)
“Also recorded” adds a separate entry of the source.

What was measured:
[1] = tested on: T3M4 pancreatic tumour cells; assay: Surface expression of beta-1 integrin and CD44v6 by FACS; format: cell-based; settings: 4 mM 2DG, 48 hours
Method: (§1) The inventors used mAbs specific for human CD44v6 (e-Bioscience), CD3, CD45, NGFR, LAG3 (BD Bioscience), HLA-DR, PD1, TIM3, (Biolegend), CD57 (Miltenyi Biotec). To determine cell vitality, 7-Aminoactinomicin D (7-AAD), AnnexinV or DAPI reagents were used. For LV transduced tumour cells, GFP expression was analysed by direct fluorescence. Samples were run through a fluorescence-activated cell sorting (FACS) Canto flow cytometer (BD Biosciences) and data were analysed with the FlowJo software (Tree Star, Inc.). For branched N-glycans expression analysis, cells were incubated with biotinylated Phaseolus vulgaris Leukoagglutinin (PHA-L; Caderlane) for 1 hour according to manufacturer's instructions, washed and incubated with PE-conjugated streptavidin and analysed by flow cytometry.

[2] = tested on: healthy peripheral blood mononuclear cells (PBMCs); assay: Safety study on buffy coat cells (PHA-L staining, 7aad/AnnexinV); format: cell-based; settings: 4 mM 2DG, 18 hours
Method: (§2) For dose assessment, tumour cells were exposed to 2, 4, 8, 16 or 64 mM 2DG (D8375, Sigma-Aldrich) and, after 48 h, absolute cell numbers and percentages of necrotic and proliferating cells were determined by FACS using Flow-Count Fluorospheres (BeckmanCoulter), 7-AAD and CFSE, respectively. For pharmacokinetic studies, tumour cells were treated with 4 mM 2DG and surface N-glycosylation was assessed by PHA-L staining at different time points from treatment or from wash-out to assess the kinetic of de-glycosylation and glycosylation, respectively. For safety studies, buffy coat cells were treated with 4 mM 2DG for 18 hours in the presence of IL-2 (100 IU/mL; Chiron), IL-21 (10 ng/ml; Peprotech) and IL-15 (5 ng/mL; Peprotech) before assessment of the glyco-phenotype by PHA-L staining and of cell viability by 7aad/AnnexinV staining.

[3] = tested on: T3M4 pancreatic adenocarcinoma xenograft; assay: In vivo efficacy, pancreatic adenocarcinoma xenograft mouse model; parameters: species or system NSG mice
Method: All experiments were approved by the Institutional Animal Care and Use Committee (IACUC) of San Raffaele University Hospital and Scientific Institute and by the Italian Governmental Health Institute (Rome, Italy). NSG mice (NOD.Cg-Prkdcscid Il2rgtm1Wj1) were obtained from the Jackson Laboratories and kept in a specific-pathogen-free (SPF) facility within individually ventilated cages. […] At day […] and 7 from tumour engraftment, when the tumour burden was high, mice were injected intraperitoneally (i.p.) with 500 mg/kg 2DG. At day 7 mice were infused intravenously (i.v.) with 5×10^5 of either CD44v6 or CD19 CAR T cells as control. In another set of experiments, mice were treated with 500 mg/kg 2DG at day 2 and 3 and received 10×10^5 of either CD44v6 or CD19 CAR T cells at day 3, when the tumour burden was low. Tumour growth was monitored by bioluminescence assay using the QUANTI-Luc detection reagent (InvivoGen) and expressed as relative light units (RLUs), according to the manufacturer instructions. Mice were sacrificed when RLUs were >10^6.

[4] = 2DG alone or combined with chemotherapy and radiotherapy; cited from earlier work
[5] = tested on: T3M4 pancreatic tumour cells; assay: Lactate production assay (glycolysis); format: cell-based; settings: low doses of 2DG, 48 h
Method: Lactate production was assessed after 48 hours of 2DG treatment at the doses of 2, 4, 8, 16 or 64 mM 2DG using the Lactate-Glo assay (Promega) according to the manufacturer's instructions.

[6] = tested on: human primary keratinocytes; assay: Primary keratinocytes: western blot and co-culture with CD44v6 CAR-T cells; format: cell-based
Method: CEA or CD44v6 CAR-T cells from healthy donors were co-cultured at 1:5, 1:10, 1:25 E:T ratios with target cells in the absence of IL-7 and IL-15. T cells transduced with an irrelevant CAR (CD19 CAR T) were used as control. After 24 h or 96 h, co-cultures were analysed by FACS using Flow-Count Fluorospheres (BeckmanCoulter) and target cell killing, expressed as Elimination Index, was calculated as follows: 1−(number of residual target cells with experimental CAR-T cells/number of residual target with irrelevant CAR-T cells). In co-culture assays combining CAR-T cells with 2DG, target cells were exposed to 4 mM 2DG for 48 h before being washed, co-cultured with experimental or irrelevant CAR-T cells and analysed as above. In these experiments, the Elimination Index of 2DG alone was calculated as follows: 1−(number of target cells cultivated in medium supplemented with 2DG/number of target cells cultivated in medium alone). Co-culture of Jurkat CAR-TPR and tumour cells was performed at 1:1 E:T ratio. […] Upregulation of fluorescence was assessed after 24 hours
Tumour cells or healthy primary keratinocytes were treated with either medium alone or supplemented with 4 mM 2DG for 48 h, lysed and subjected to SDS polyacrylamide gel electrophoresys. De-glycosylation was assessed as molecular weight shift. […]

[7] = tested on: T3M4 pancreatic tumour cells; assay: PHA-L staining of surface N-glycosylation after 2DG treatment; format: cell-based
Method: as §2, §1

[8] = tested on: T3M4 and PT45 pancreatic tumour cells; assay: In vitro co-culture killing assay with CD44v6 CAR-T cells; format: cell-based
Method: (§3) CEA or CD44v6 CAR-T cells from healthy donors were co-cultured at 1:5, 1:10, 1:25 E:T ratios with target cells in the absence of IL-7 and IL-15. T cells transduced with an irrelevant CAR (CD19 CAR T) were used as control. After 24 h or 96 h, co-cultures were analysed by FACS using Flow-Count Fluorospheres (BeckmanCoulter) and target cell killing, expressed as Elimination Index, was calculated as follows: 1−(number of residual target cells with experimental CAR-T cells/number of residual target with irrelevant CAR-T cells). In co-culture assays combining CAR-T cells with 2DG, target cells were exposed to 4 mM 2DG for 48 h before being washed, co-cultured with experimental or irrelevant CAR-T cells and analysed as above. In these experiments, the Elimination Index of 2DG alone was calculated as follows: 1−(number of target cells cultivated in medium supplemented with 2DG/number of target cells cultivated in medium alone). Co-culture of Jurkat CAR-TPR and tumour cells was performed at 1:1 E:T ratio. As control, Jurkat CAR-TPR cells were treated with either 50 ng/mL of phorbol myristate acetate (PMA) or […] of Ionomycin or a combination of the two. Upregulation of fluorescence was assessed after 24 hours

[9] = tested on: 5637, H1975 and PC9 cells; assay: In vitro co-culture killing assay, other tumour types; format: cell-based; settings: 4 mM 2DG 48 hours before co-culture
Method: as §3

[10] = tested on: T3M4 pancreatic tumour cells; assay: Western blot / biotin-enrichment assay of protein de-glycosylation; format: cell-based
Method: […] De-glycosylation was assessed as molecular weight shift. For selective cell membrane protein analysis, biotinilation assay was performed according to manufacturer instructions (Thermo Scientific). Treatment of cell lysates with PNGase F (NEB, P0704) was performed as recommended by the manufacturer's instructions.

[11] = tested on: PT45, BxPC3 and T3M4 pancreatic tumour cells; assay: In vitro co-culture killing assay with CEA CAR-T cells; format: cell-based
Method: as §3

[12] = tested on: T3M4 pancreatic tumour cells; assay: Tumour cell survival (7-AAD) and proliferation (CFSE) after 2DG; format: cell-based; settings: low doses of 2DG (4 mM, 48 hours)
Method: as §2

[13] = tested on: sulfation (PAPS formation); settings: chlorate usually 10-30 mM; cited from earlier work
[14] = T3M4, tunicamycin 100 ng/ml, 48 h

For `O=CC[C@@H](O)[C@H](O)[C@H](O)CO` [2DG, 2-Deoxy-D-glucose], the “surface expression levels of beta-1 integrin and CD44v6” value [1] was “maintained”, the “PBMCs glycosylation (PHA-L staining)” value [2] was “failed to interfere with PBMCs glycosylation” and the “viability of CD3+ T cells, CD19+ B cells, CD14+ monocytes and CD15+ granulocytes” value [2] was “did not impact on the viability”. The “frequency of tumour-infiltrating CD44v6 CAR-T cells expressing exhaustion and senescence markers” value ([3]; at sacrifice, mice that received 2DG vs not) was “significantly lower frequency of cells expressing exhaustion and senescence markers”, the “antitumor effect of 2DG alone” value ([3]; high tumor burden) was “unable to mediate any antitumor effect alone” and the “less tumor with 2DG in mice receiving CAR-T cells” value ([3]; high tumor burden, at 7d, p<0,05) was 5 fold. For the same compound, the “antitumor benefit of 2DG in mice receiving CD44v6 CAR-T cells” value ([3]; high tumour burden (HTB) setting, 500 mg/kg 2DG i.p., low CAR-T cell dose) was “significantly benefited from 2DG administration”, the “safety and tolerability in patients” value [4] was “safe and well tolerated; also recorded: good tolerability” and the “inhibition of glycolysis (lactate production)” value [5] was “unable to inhibit glycolysis”. The “increase of keratinocyte elimination by CD44v6 CAR-T cells” value ([6]; 2DG 48 hours before co-culture) was “failed”, the keratinocyte glycosylation ([6]; 2DG 48 hours, same dose as for tumour cells) was “failed to inhibit keratinocyte glycosylation” and the “duration of de-glycosylation after washing out 2DG” value ([7]; 4 mM 2DG up to 48 hours, then wash-out) was 24 h. The “inhibition of N-glycosylation (binding to PHA-L)” value ([7]; 4 mM 2DG, 48 hours) was “reduced binding to PHA-L”, the “time at which de-glycosylation is detectable” value ([7]; 4 mM 2DG, PHA-L staining) was ≤ 5 h and the “nature of the combined effect of 2DG and CD44v6 CAR-T cells” value ([8]; PT45 and T3M4) was “synergic”. For the same compound, the “individual antitumor activity of 2DG alone” value ([8]; PT45 and T3M4, 4 mM 2DG 48 h) was “lacking”, the “elimination of tumour cells by CD44v6 CAR-T cells after 2DG pre-treatment” value ([8]; PT45 and T3M4, 4 mM 2DG 48 h before co-culture) was “significantly increasing their elimination” and the “elimination of highly glycosylated tumours by CD44v6 CAR-T cells after 2DG” value [9] was “drastically increase the elimination”. The “inhibition of N-glycosylation (western blot, beta-1 integrin)” value ([10]; 2DG 4 mM or 16 mM, 48 hours, total cell lysates) was “molecular-weight shift of beta-1 integrin”, the “de-glycosylated forms of beta-1 integrin and CD44v6 among surface proteins” value ([10]; biotin-enrichment western blot) was “clearly detected among surface proteins” and the “cytokine release (IFNγ) by CEA CAR-T cells with 2DG-treated tumour cells” value ([11]; 24 hours after stimulation) was “increased”. For the same compound, the “recognition of CEAneg tumour cells by CEA CAR-T cells after 2DG pre-treatment” value ([11]; CEAneg PT45, 4 mM 2DG 48 hours) was “did not increase recognition”, the “elimination of CEApos tumour cells by CEA CAR-T cells after 2DG pre-treatment” value ([11]; CEApos BxPC3 and T3M4, 4 mM 2DG 48 hours) was “significantly improved the elimination” and the “CEA CAR-T cell activation (CD69, Jurkat TPR) with 2DG-treated tumour cells” value ([11]; T3M4, 4 mM 2DG) was “increased CAR-T cell activation”. For the same compound, the “tumour cell proliferation (CFSE dilution)” value [12] was “no impact” and the “tumour cell viability (7AADpos cells)” value [12] was “no impact on tumour cell viability”.
In the case of `[O-][Cl+2]([O-])O` [chlorate], the inhibition of sulfation [13] is listed as > 90%.
With tunicamycin the “CD44v6 CAR-T cell activation (CD69) after tunicamycin treatment of tumour cells” value [8, 14] was “confirmed” and the “elimination of tumour cells by CD44v6 CAR-T cells after tunicamycin treatment” value [8, 14] was “confirmed”.
